Assay results: US11332467B2, “Solid state forms of palbociclib dimesylate” (PLANTEX LTD., priority 2016, dated 2022)

Test: Specific surface area (SSA), BET nitrogen adsorption
Assay type: physicochemical
Conditions: 7 point BET in the range 0.05-0.20 P/Po, triplicate determination, Palbociclib Form A obtained by Example 6
Protocol: Specific Surface Area (SSA) Method
SSA measurement based on BET-nitrogen adsorption were carried out using a Micromeritics TriStar II Plus 3030 specific surface area analyzer together with Micromeritics VacPrep 061 degassing station.
Software version: Microactive for TriStar II Plus v 2.03
Sample tube: ½″ round bottom cell with glass filler rods
Sample masses*: Approximately % full cell
Sample preparation: VacPrep 061, nitrogen stream
Out gassing conditions: 16 hrs at 25° C. under vacuum
Isothermal collection points: 11 point BET in the range 0.05-0.30 P/Po
Isothermal data analysis range: 7 point BET in the range 0.05-0.20 P/Po
Outgas test duration: 180 s
Equilibration interval: 10 s
Equilibration timeout: 600 s
Calculations and Reporting: The specific surface area was reported in the range 0.05-0.20 P/Po using 7 point BET from a triplicate determination.

- SSA (specific surface area): 4.9 m^2/g
Compound: CC(=O)c1c(C)c2cnc(Nc3ccc(N4CCNCC4)cn3)nc2n(C2CCCC2)c1=O [Palbociclib, 6-Acetyl-8-cyclopentyl-5-methyl-2-[[5-(1-piperazinyl)-2-pyridinyl]amino]pyrido[2,3-d]pyrimidin-7(8H)-one]
